Structures can show the parent of a compound that is named as a salt.
Compared with `CC(NCCc1ccccc1)c1ccc(Oc2ccc3nnc(Cl)n3n2)c(-c2ccccc2)c1` (centres unmarked) [Cpd.4-165, 3-chloro-6-(5-(methylphenethylaminomethyl)biphenyl-2-yloxy)-[1,2,4]triazolo[4,3-b]pyridazine], `CNC(Cc1ccccc1)c1ccc(Oc2ccc3nnc(Cl)n3n2)c(-c2ccccc2)c1` (centres unmarked) [Cpd.4-158, 3-chloro-6-(5-(benzylmethylaminomethyl)biphenyl-2-yloxy)-[1,2,4]triazolo[4,3-b]pyridazine] is lower in melting point: 114.3 to 117 °C for the first, 60.8 to 62.5 °C for the second.

First: NC(=O)c1cccc(-c2ccc(C(F)(F)F)cc2Oc2ccc3nnc(Cl)n3n2)c1 (as salt: sodium) [Cpd.4-72, 3-chloro-6-(4-trifluoromethyl-3′-aminocarbonyl-biphenyl-2-yloxy)-[1,2,4]triazolo[4,3-b]pyridazine]
Second: FC(F)(F)c1ccc(-c2cscn2)c(Oc2ccc3nnc(Cl)n3n2)c1 (as salt: potassium) [Cpd.4-106, 3-chloro-6-(2-(thiazol-4-yl)-5-(trifluoromethyl)phenoxy)-[1,2,4]triazolo[4,3-b]pyridazine]
The melting point of the first is higher: 217.7 to 220 °C for the first, 191 to 192 °C for the second.

Compared with `CC(NC1CCCCC1)c1ccc(Oc2ccc3nnc(Cl)n3n2)c(-c2ccccc2)c1` (centres unmarked) [Cpd.4-167, 3-chloro-6-(5-(methyl-cyclohexylaminomethyl)biphenyl-2-yloxy)-[1,2,4]triazolo[4,3-b]pyridazine], `OCc1ccc(Oc2ccc3nnc(Cl)n3n2)c(-c2ccccc2)c1` (as salt: sodium) [Cpd.4-66, 3-chloro-6-(5-hydroxymethyl-biphenyl-2-yloxy)-[1,2,4]triazolo[4,3-b]pyridazine] is higher in melting point: 50.6 °C for the first, 72 °C for the second.

Compared with `FC(F)(F)c1ccc(-c2ccccc2)c(Oc2nn3c(Cl)nnc3cc2C2CC2)c1` [Cpd.5-14, 3-chloro-7-cyclopropyl-6-(4-trifluoromethyl-biphenyl-2-yloxy)-[1,2,4]triazolo[4,3-b]pyridazine], `NCc1ccc(-c2ccccc2)c(Oc2ccc3nnc(Cl)n3n2)c1` (as salt: sodium) [Cpd.4-65, 3-chloro-6-(4-aminomethyl-biphenyl-2-yloxy)-[1,2,4]triazolo[4,3-b]pyridazine] is higher in melting point: 130 to 133 °C for the first, 164.6 to 167.7 °C for the second.

First: COc1cccc(-c2cc(F)ccc2Oc2ccc3nnc(Cl)n3n2)c1 (as salt: sodium) [Cpd.4-76, 3-chloro-6-(5-fluoro-3′ methoxy-biphenyl-2-yloxy)-[1,2,4]triazolo[4,3-b]pyridazine]
Second: O=C(O)c1ccc(Oc2ccc3nnc(Cl)n3n2)c(-c2ccccc2)c1 [Cpd.4-59, 3-chloro-6-(5-hydroxycarbonyl-biphenyl-2-yloxy)-[1,2,4]triazolo[4,3-b]pyridazine]
The melting point of the first is lower: 91.3 to 93.4 °C for the first, 266.9 to 267.7 °C for the second.

`FC(F)(F)c1ccc(-c2nccs2)c(Oc2ccc3nnc(Cl)n3n2)c1` (as salt: potassium) [Cpd.4-105, 3-chloro-6-(2-(thiazol-2-yl)-5-(trifluoromethyl)phenoxy)-[1,2,4]triazolo[4,3-b]pyridazine] gave a melting point of 171 to 173 °C.

Source: patent US9586963B2 (GENFIT, priority 2011, dated 2017)
